Values quoted from earlier work in patent US20040208833A1, “Novel fluticasone formulations” (Elan Pharma International Ltd., priority 2003, published 2004).

What was measured:
[1] = not given; remark: listed apart in the source
[2] = oral dosing of radiolabeled drug

**Q.** Which “solubility in 95% ethanol” value (95% ethanol) does the source give for `CCC(=O)O[C@]1(C(=O)SCF)[C@H](C)C[C@H]2[C@@H]3C[C@H](F)C4=CC(=O)C=C[C@]4(C)[C@@]3(F)[C@@H](O)C[C@@]21C` [Fluticasone propionate, S-fluoromethyl-6α,9-difluoro-11β-hydroxy-16α-methyl-3-oxoandrosta-1,4-diene-17β-carbothioate, 17-propionate] here?
**A.** slightly soluble

**Q.** What about the “solubility in dimethyl sulfoxide” value (dimethyl sulfoxide) of the same molecule?
**A.** freely soluble

**Q.** What about the solubility in dimethylformamide (dimethylformamide) of the same molecule?
**A.** freely soluble

**Q.** What about the solubility in methanol (methanol) of the same molecule?
**A.** slightly soluble

**Q.** What about the solubility in water (water) of the same molecule?
**A.** practically insoluble

**Q.** And the oral systemic bioavailability ([1]; oral dosing of labeled and unlabeled conventional fluticasone propionate)?
**A.** < 1%

**Q.** And the absorption [1, 2]?
**A.** low

**Q.** And the extraction from plasma [1, 2]?
**A.** highly extracted from plasma

**Q.** And the oral bioavailability [1, 2]?
**A.** neglible
